# Test results published in patent US6525001B1, “Substituted pyrimidine and pyridine herbicides” (Mid-American Commercialization Corporation, priority 1997, dated 2003).
# Legend:
# Format in all cases: in vivo
# [1] = system: bedstraw (Galium aparine); test: Test B pre-/postemergence; parameters: key: 0 is no effect; 10 is complete control
# Procedure, shortened: (§1)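 Response scores run from 0, meaning no effect, to 10, meaning complete control, assigned by eye relative to controls twelve to sixteen days after spraying. Treatment was both preemergence on planted seed and postemergence on plants at the 1- to 4-leaf stage.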
# wild oat (Avena fatua) = test: Test B pre-/postemergence; parameters: key: 0 is no effect; 10 is complete control
# Procedure, shortened: as §1
# soybean (Glycine max) = test: Test B pre-/postemergence; parameters: key: 0 is no effect; 10 is complete control
# Procedure, shortened: as §1
# [2] = system: velvetleaf (Abutilon theophrasti); test: Test B pre-/postemergence; parameters: key: 0 is no effect; 10 is complete control
# Procedure, shortened: as §1
# [3] = system: sugar beet (Beta vulgaris); test: Test B pre-/postemergence; parameters: key: 0 is no effect; 10 is complete control
# Procedure, shortened: as §1
# [4] = system: giant foxtail (Setaria faberii); test: Test B pre-/postemergence; parameters: key: 0 is no effect; 10 is complete control
# Procedure, shortened: as §1
# [5] = system: wheat (Triticum aestivum); test: Test B pre-/postemergence; parameters: key: 0 is no effect; 10 is complete control
# Procedure, shortened: as §1
# rape (Brassica napus) = test: Test B pre-/postemergence; parameters: key: 0 is no effect; 10 is complete control
# Procedure, shortened: as §1
# corn (Zea mays) = test: Test B pre-/postemergence; parameters: key: 0 is no effect; 10 is complete control
# Procedure, shortened: as §1
# [6] = system: crabgrass (Digitaria sanguinalis); test: Test B pre-/postemergence; parameters: key: 0 is no effect; 10 is complete control
# Procedure, shortened: as §1
# [7] = system: purple nutsedge (Cyperus rotundus); test: Test B pre-/postemergence; parameters: key: 0 is no effect; 10 is complete control
# Procedure, shortened: as §1
# [8] = system: bamyardgrass (Echinochloa crus-galli); test: Test B flood test; details: for Plant response rating, Barnyardgrass: Postemergence (flood test species)
# Procedure, shortened: (§2)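 Each value is a visual injury score relative to controls, with 10 meaning complete control and 0 no effect. Evaluation took place twelve to sixteen days after the 2-leaf-stage plants were treated and kept in the greenhouse.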
# [9] = system: smallflower flatsedge (Cyperus difformis); test: Test B flood test; details: for Plant response rating, S. Flatsedge: Postemergence (flood test species)
# Procedure, shortened: as §2
# rice (Oryza sativa) = test: Test B flood test; details: for Plant response rating, Rice: Postemergence (flood test species)
# Procedure, shortened: as §2
# [10] = system: duck salad (Heteranthera limosa); test: Test B flood test; details: for Plant response rating, Ducksalad: Postemergence (flood test species)
# Procedure, shortened: as §2
# [11] = Preemergence, Rate 62 g/ha, scale of 0 to 10
# [12] = Rate 62 g/ha, Postemergence (flood test)
# [13] = Rate 125 g/ha, Postemergence section (flood test species)
smiles,measurement,setting,value
Cc1cnc(-n2ccc(C(F)(F)F)n2)nc1C(=O)c1cccc(C(F)(F)F)c1 [Compound 59],"Plant response rating, Bedstraw",[1]; [11],3
same,Bedstraw plant response rating,"[1]; Rate 62 g/ha, Postemergence",7
same,Bedstraw plant response rating,"[1]; Rate 125 g/ha, Postemergence",7
same,"Plant response rating, Bedstraw","[1]; Rate 125 g/ha, Preemergence",6
same,"Plant response rating, Bedstraw","[1]; Rate 250 g/ha, Postemergence",8
same,"Plant response rating, Bedstraw","[1]; Rate 250 g/ha, Preemergence",6
same,"Plant response rating, Bedstraw","[1]; Rate 500 g/ha, Postemergence",9
same,"Plant response rating, Bedstraw","[1]; Rate 500 g/ha, Preemergence",8
same,"Plant response rating, Wild oats",wild oat (Avena fatua); [11],7
same,Wild oats plant response rating,"wild oat (Avena fatua); Rate 62 g/ha, Postemergence",1
same,Wild oats plant response rating,"wild oat (Avena fatua); Rate 125 g/ha, Postemergence",1
same,"Plant response rating, Wild oats","wild oat (Avena fatua); Rate 125 g/ha, Preemergence",8
same,"Plant response rating, Wild oats","wild oat (Avena fatua); Rate 250 g/ha, Postemergence",3
same,"Plant response rating, Wild oats","wild oat (Avena fatua); Rate 250 g/ha, Preemergence",9
same,"Plant response rating, Wild oats","wild oat (Avena fatua); Rate 500 g/ha, Postemergence",6
same,"Plant response rating, Wild oats","wild oat (Avena fatua); Rate 500 g/ha, Preemergence",9
same,"Plant response rating, Soybean",soybean (Glycine max); [11],1
same,Soybean plant response rating,"soybean (Glycine max); Rate 62 g/ha, Postemergence",6
same,Soybean plant response rating,"soybean (Glycine max); Rate 125 g/ha, Postemergence",7
same,"Plant response rating, Soybean","soybean (Glycine max); Rate 125 g/ha, Preemergence",2
same,"Plant response rating, Soybean","soybean (Glycine max); Rate 250 g/ha, Postemergence",8
same,"Plant response rating, Soybean","soybean (Glycine max); Rate 250 g/ha, Preemergence",2
same,"Plant response rating, Soybean","soybean (Glycine max); Rate 500 g/ha, Postemergence",9
same,"Plant response rating, Soybean","soybean (Glycine max); Rate 500 g/ha, Preemergence",4
same,"Plant response rating, Velvetleaf",[2]; [11],7
same,Velvetleaf plant response rating,"[2]; Rate 62 g/ha, Postemergence",6
same,Velvetleaf plant response rating,"[2]; Rate 125 g/ha, Postemergence",7
same,"Plant response rating, Velvetleaf","[2]; Rate 125 g/ha, Preemergence",7
same,"Plant response rating, Velvetleaf","[2]; Rate 250 g/ha, Postemergence",7
same,"Plant response rating, Velvetleaf","[2]; Rate 250 g/ha, Preemergence",9
same,"Plant response rating, Velvetleaf","[2]; Rate 500 g/ha, Postemergence",8
same,"Plant response rating, Velvetleaf","[2]; Rate 500 g/ha, Preemergence",10
same,"Plant response rating, Sugarbeets",[3]; [11],10
same,Sugarbeets plant response rating,"[3]; Rate 62 g/ha, Postemergence",9
same,Sugarbeets plant response rating,"[3]; Rate 125 g/ha, Postemergence",9
same,"Plant response rating, Sugarbeets","[3]; Rate 125 g/ha, Preemergence",10
same,"Plant response rating, Sugarbeets","[3]; Rate 250 g/ha, Postemergence",9
same,"Plant response rating, Sugarbeets","[3]; Rate 250 g/ha, Preemergence",10
same,"Plant response rating, Sugarbeets","[3]; Rate 500 g/ha, Postemergence",9
same,"Plant response rating, Sugarbeets","[3]; Rate 500 g/ha, Preemergence",10
same,"Plant response rating, Giant foxtail",[4]; [11],8
same,Giant foxtail plant response rating,"[4]; Rate 62 g/ha, Postemergence",6
same,Giant foxtail plant response rating,"[4]; Rate 125 g/ha, Postemergence",6
same,"Plant response rating, Giant foxtail","[4]; Rate 125 g/ha, Preemergence",10
same,"Plant response rating, Giant foxtail","[4]; Rate 250 g/ha, Postemergence",8
same,"Plant response rating, Giant foxtail","[4]; Rate 250 g/ha, Preemergence",10
same,"Plant response rating, Giant foxtail","[4]; Rate 500 g/ha, Postemergence",9
same,"Plant response rating, Giant foxtail","[4]; Rate 500 g/ha, Preemergence",10
same,"Plant response rating, Wheat",[5]; [11],1
same,Wheat plant response rating,"[5]; Rate 62 g/ha, Postemergence",1
same,Wheat plant response rating,"[5]; Rate 125 g/ha, Postemergence",2
same,"Plant response rating, Wheat","[5]; Rate 125 g/ha, Preemergence",2
same,"Plant response rating, Wheat","[5]; Rate 250 g/ha, Postemergence",2
same,"Plant response rating, Wheat","[5]; Rate 250 g/ha, Preemergence",3
same,"Plant response rating, Wheat","[5]; Rate 500 g/ha, Postemergence",3
same,"Plant response rating, Wheat","[5]; Rate 500 g/ha, Preemergence",5
same,"Plant response rating, Rape",rape (Brassica napus); [11],5
same,Rape plant response rating,"rape (Brassica napus); Rate 62 g/ha, Postemergence",6
same,Rape plant response rating,"rape (Brassica napus); Rate 125 g/ha, Postemergence",7
same,"Plant response rating, Rape","rape (Brassica napus); Rate 125 g/ha, Preemergence",7
same,"Plant response rating, Rape","rape (Brassica napus); Rate 250 g/ha, Postemergence",7
same,"Plant response rating, Rape","rape (Brassica napus); Rate 250 g/ha, Preemergence",7
same,"Plant response rating, Rape","rape (Brassica napus); Rate 500 g/ha, Postemergence",7
same,"Plant response rating, Rape","rape (Brassica napus); Rate 500 g/ha, Preemergence",10
same,"Plant response rating, Corn",corn (Zea mays); [11],0
same,Corn plant response rating,"corn (Zea mays); Rate 62 g/ha, Postemergence",1
same,Corn plant response rating,"corn (Zea mays); Rate 125 g/ha, Postemergence",2
same,"Plant response rating, Corn","corn (Zea mays); Rate 125 g/ha, Preemergence",1
same,"Plant response rating, Corn","corn (Zea mays); Rate 250 g/ha, Postemergence",3
same,"Plant response rating, Corn","corn (Zea mays); Rate 250 g/ha, Preemergence",1
same,"Plant response rating, Corn","corn (Zea mays); Rate 500 g/ha, Postemergence",4
same,"Plant response rating, Corn","corn (Zea mays); Rate 500 g/ha, Preemergence",3
same,"Plant response rating, Crabgrass",[6]; [11],8
same,Crabgrass plant response rating,"[6]; Rate 62 g/ha, Postemergence",6
same,Crabgrass plant response rating,"[6]; Rate 125 g/ha, Postemergence",6
same,"Plant response rating, Crabgrass","[6]; Rate 125 g/ha, Preemergence",9
same,"Plant response rating, Crabgrass","[6]; Rate 250 g/ha, Postemergence",8
same,"Plant response rating, Crabgrass","[6]; Rate 250 g/ha, Preemergence",10
same,"Plant response rating, Crabgrass","[6]; Rate 500 g/ha, Postemergence",9
same,"Plant response rating, Crabgrass","[6]; Rate 500 g/ha, Preemergence",10
same,"Plant response rating, Nutsedge",[7]; [11],0
same,Nutsedge plant response rating,"[7]; Rate 62 g/ha, Postemergence",0
same,Nutsedge plant response rating,"[7]; Rate 125 g/ha, Postemergence",0
same,"Plant response rating, Nutsedge","[7]; Rate 125 g/ha, Preemergence",0
same,"Plant response rating, Nutsedge","[7]; Rate 250 g/ha, Postemergence",0
same,"Plant response rating, Nutsedge","[7]; Rate 250 g/ha, Preemergence",0
same,"Plant response rating, Nutsedge","[7]; Rate 500 g/ha, Postemergence",0
same,"Plant response rating, Nutsedge","[7]; Rate 500 g/ha, Preemergence",0
same,Barnyardgrass plant response rating,[8]; [12],3
same,Barnyardgrass plant response rating,[8]; [13],4
same,"Plant response rating, Barnyardgrass",[8]; Rate 250 g/ha,5
same,"Plant response rating, Barnyardgrass",[8]; Rate 500 g/ha,8
same,S. Flatsedge plant response rating,[9]; [12],7
same,S. Flatsedge plant response rating,[9]; [13],7
same,"Plant response rating, S. Flatsedge",[9]; Rate 250 g/ha,8
same,"Plant response rating, S. Flatsedge",[9]; Rate 500 g/ha,9
same,Rice plant response rating,rice (Oryza sativa); [12],2
same,Rice plant response rating,rice (Oryza sativa); [13],3
same,"Plant response rating, Rice",rice (Oryza sativa); Rate 250 g/ha,4
same,"Plant response rating, Rice",rice (Oryza sativa); Rate 500 g/ha,6
same,Ducksalad plant response rating,[10]; [12],3
same,Ducksalad plant response rating,[10]; [13],4
same,"Plant response rating, Ducksalad",[10]; Rate 250 g/ha,6
same,"Plant response rating, Ducksalad",[10]; Rate 500 g/ha,7
